In assay [1] the test system is Clostridium difficile ATCC 630. Kind of assay: In vitro MIC, agar dilution, Clostridium difficile ATCC 630. The format is cell-based. The conditions noted are these: Clostridioides difficile, read-out: MIC values, Clostridium difficile ATCC 630. Background: Agar dilution tests growth on a series of plates holding different concentrations.
The test system of assay [2] is Clostridium difficile ATCC 700057. Kind of assay: In vitro MIC, agar dilution, Clostridium difficile ATCC 700057. In kind it is cell-based. The conditions noted are these: Clostridioides difficile, read-out: MIC values, Clostridium difficile ATCC 700057.
Assay [3] concerns Clostridium difficile ATCC BBA1870. Put plainly: In vitro MIC, agar dilution, Clostridium difficile ATCC BBA1870. The format is cell-based. The following applies: Clostridioides difficile, ATCCBBA1870, 48 h, read-out: MIC values, Clostridium difficile ATCC BBA1870.
Assay [4] concerns Clostridium difficile spores (ATCC 630 strain). Kind of assay: Treatment of Clostridium difficile infection in golden hamsters. In kind it is in vivo. The following applies: golden hamsters challenged with C. difficile spores; for time after drug withdrawal at which deaths occurred / began: drugs removed from the 21st day; for survival / mortality after drug withdrawal, observed until the 45th day: twice a day for 20 days (I-3 100 mg/kg, vancomycin 10 mg/kg, fidaxomicin 10 mg/kg, nitazoxanide 100 mg/kg). Here is the method: 60 of 5-week-old male golden hamsters, weighing 70-90 g, were purchased from Beijing Vital River Laboratory Animal Technology Co., Ltd. After one week of adaptive feeding, golden hamsters were randomly divided into six groups. The model group and four test groups were orally administrated 10 mg/kg clindamycin, while the blank group was given the same volume of normal saline, and this day was recorded as day −1. On day 0, the model group and the test groups were challenged with Clostridium difficile spores (ATCC 630 strain), and each hamster received 5E4 spores. The blank group was not treated. Starting from the first day, four test groups were administered 100 mg/kg of compound I-3 according to the present invention, 10 mg/kg of vancomycin, 10 mg/kg of fidaxomicin, and 100 mg/kg of nitazoxanide twice a day, respectively; the blank group and the model group were given equal amounts of normal saline for a total of 20 days. During this period, the changes in weight, the diarrhea, and the mortality of animals were observed. Starting from the 21st day, the drugs were removed, but the observation was continued until the 45th day.

Assay [5] has as its system Lactobacillus bulgaricus ATCC11842. Kind of assay: Selectivity on intestinal probiotics, MIC, agar dilution. In kind it is cell-based. The following applies: read-out: MIC value, Lactobacillus bulgaricus ATCC11842. The protocol: (§1) ATCC19435, Lactobacillus rhamnosus ATCC7469, Lactobacillus bulgaricus ATCC11842, and the test was performed using Brucella agar medium. The strains frozen at −80° C. were seeded in solid agar medium. The medium was placed in a 37° C. incubator and anaerobically cultivated for 24-48 h. […] For compound I-3 of the present invention, a high concentration (100× test concentration) of working solution was prepared and used on the same day, and 100% DMSO was used as the solvent. As for the preparation of each agar plate for each diluted concentration, 20 μl of high concentration working solution was mixed with 2 ml of melted Brucella agar with supplements (45-55° C.), and then added to a 6-well plate for solidification. 1% DMSO was used as growth control. On the day of the experiment, an appropriate amount of single bacterial colony was selected and suspended in physiological saline. A turbidity meter was used to adjust the turbidity of the bacterial solution to OD600=0.2, and thus the density was about 1×10^8 CFU/ml. 2 μl of such bacterial solution was directly seeded on a solid dilution agar plate of each compound. […] Then, all of the test plates were subjected to anaerobic cultivation at 35±2° C. for 48 h.

The subject of another assay is ATCC BAA-835. The assay is described as above. The conditions noted are these: read-out: MIC value, ATCC BAA-835. The format is cell-based. The protocol: as §1
In assay [6] the test system is Lactobacillus acidophilus ATCC4356. The assay is described as above. The format is cell-based. The conditions noted are these: read-out: MIC value, Lactobacillus acidophilus ATCC4356. Here is the method: as §1
Assay [7] has as its system Lactococcus lactis subsp. ATCC19435. The description is as above. In kind it is cell-based. The conditions noted are these: read-out: MIC value, Lactococcus lactis subsp. ATCC19435. The protocol:
as §1

The test system of assay [8] is Enterococcus faecalis ATCC19433. The description is as above. The following applies: read-out: MIC value, Enterococcus faecalis ATCC19433. In kind it is cell-based. Here is the method:
as §1

In assay [9] the test system is Lactobacillus rhamnosus ATCC7469. The assay is described as above. The following applies: Lacticaseibacillus rhamnosus, read-out: MIC value, Lactobacillus rhamnosus ATCC7469. The format is cell-based. Here is the method: as §1
Assay [10] relates to Bifidobacterium bifidum CGMCC NO.1.5091. The assay is described as above. The following applies: read-out: MIC value, Bifidobacterium bifidum CGMCC NO.1.5091. In kind it is cell-based. The protocol: as §1
Where [11] appears, read: ATCC630, Brucella agar with supplements, anaerobic cultivation 48 h.
Where [12] appears, read: ATCC700057, Brucella agar with supplements, anaerobic cultivation 48 h.
Where [13] appears, read: ATCC11842, probiotic strain, Brucella agar, anaerobic cultivation 48 h.
[14] abbreviates: probiotic strain, Brucella agar, anaerobic cultivation 48 h.
The mark [15] stands for this setting: ATCC4356, probiotic strain, Brucella agar, anaerobic cultivation 48 h.
The mark [16] stands for this setting: ATCC19435, probiotic strain, Brucella agar, anaerobic cultivation 48 h.
Setting [17] is: ATCC19433, probiotic strain, Brucella agar, anaerobic cultivation 48 h.
Setting [18] is: ATCC7469, probiotic strain, Brucella agar, anaerobic cultivation 48 h.
The mark [19] stands for this setting: CGMCC1, probiotic strain, Brucella agar, anaerobic cultivation 48 h.

Results on seven compounds are retold here after US20240300910A1, “NITROTHIAZOLE DERIVATIVE AND APPLICATION THEREOF” (CHENGDU BIOBEL BIOTECHNOLOGY CO., LTD., priority 2021, published 2024).

In brackets after ≈: the same amount, converted by molar mass. Like-named read-outs stand apart in the source and are kept apart here.

As for `CCCC(=O)Oc1ccccc1C(=O)Nc1ncc([N+](=O)[O-])s1` [Compound I-1], the MIC in [1] (setting [11]) amounted to 0.0625 µg/mL (≈ 0.186 µM); in assay [2] (setting [12]) it was 0.25 µg/mL (≈ 0.746 µM); in [3] it was 0.25 µg/mL (≈ 0.746 µM).
Turning to `CCCCCCCC(=O)Oc1ccccc1C(=O)Nc1ncc([N+](=O)[O-])s1` [Compound I-2], the MIC in assay [1] (setting [11]) stood at 0.0625 µg/mL (≈ 0.16 µM); in assay [2] (setting [12]), 0.25 µg/mL (≈ 0.639 µM); in assay [3], 0.25 µg/mL (≈ 0.639 µM).
For the compound `CCCCCCCCCCCC(=O)Oc1ccccc1C(=O)Nc1ncc([N+](=O)[O-])s1` [Compound I-3], the MIC is 0.0625 µg/mL (≈ 0.14 µM) in assay [1] (setting [11]); more than 256 µg/mL in assay [5] (setting [13]); 128 µg/mL (≈ 286 µM) with ATCC BAA-835 (setting [14]); more than 256 µg/mL in assay [6] (setting [15]); 256 µg/mL (≈ 572 µM) in [7] (setting [16]); 256 µg/mL (≈ 572 µM) in assay [8] (setting [17]). The MIC was more than 256 µg/mL in assay [9] (setting [18]), 128 µg/mL (≈ 286 µM) in assay [10] (setting [19]), 0.0625 µg/mL (≈ 0.14 µM) in assay [2] (setting [12]) and 0.125 µg/mL (≈ 0.279 µM) in assay [3]. Further, the “time after drug withdrawal at which deaths occurred / began” value in [4] is on record as 7 days. Besides, the “survival / mortality after drug withdrawal, observed until the 45th day” value (shortened to “survival / mortality”) in assay [4] is on record as “only one animal died”.
Take `CCCCCCCCCCCCCC(=O)Oc1ccccc1C(=O)Nc1ncc([N+](=O)[O-])s1` [Compound I-4]: the values for the MIC in [1] (setting [11]), in [2] (setting [12]) and in assay [3] were 0.0625 µg/mL (≈ 0.131 µM), 0.125 µg/mL (≈ 0.263 µM) and 0.25 µg/mL (≈ 0.526 µM), respectively.
Regarding `CCc1c(Cl)c(O)c(Cl)c(O)c1C(=O)O[C@H]1[C@H](O)[C@H](OC)[C@H](OC/C2=C\C=C\C[C@H](O)/C(C)=C/[C@H](CC)[C@@H](O[C@@H]3OC(C)(C)[C@@H](OC(=O)C(C)C)[C@H](O)[C@@H]3O)/C(C)=C/C(C)=C/C[C@@H]([C@@H](C)O)OC2=O)O[C@@H]1C` [fidaxomicin], in assay [4], the “time after drug withdrawal at which deaths occurred / began” value was 15 days. Moreover, the “survival / mortality” value in assay [4] is “all of them died”. Further, the MIC turned out to be 128 µg/mL (≈ 121 µM) in [5] (setting [13]); 1 µg/mL (≈ 0.945 µM) in the assay on ATCC BAA-835 (setting [14]); 128 µg/mL (≈ 121 µM) in [6] (setting [15]); 64 µg/mL (≈ 60.5 µM) in assay [7] (setting [16]); 1 µg/mL (≈ 0.945 µM) in assay [8] (setting [17]); 16 µg/mL (≈ 15.1 µM) in assay [9] (setting [18]). The MIC in [10] (setting [19]) came to 4 µg/mL (≈ 3.78 µM).
As to `CC(=O)Oc1ccccc1C(=O)Nc1ncc([N+](=O)[O-])s1` [nitazoxanide, Nitazoxanide], the MIC in [1] (setting [11]) amounted to 0.125 µg/mL (≈ 0.407 µM); in [5] (setting [13]) it was 64 µg/mL (≈ 208 µM); in the assay with ATCC BAA-835 (setting [14]), 1 µg/mL (≈ 3.25 µM); in [6] (setting [15]), 64 µg/mL (≈ 208 µM); in assay [7] (setting [16]), 8 µg/mL (≈ 26 µM); in assay [8] (setting [17]), 64 µg/mL (≈ 208 µM). Moreover, the MIC in assay [9] (setting [18]) was 256 µg/mL (≈ 833 µM); in [10] (setting [19]) it was 32 µg/mL (≈ 104 µM); in assay [2] (setting [12]), 0.125 µg/mL (≈ 0.407 µM); in assay [3] it was 0.5 µg/mL (≈ 1.63 µM). Further, the “survival / mortality” value in [4] was “four hamsters in the nitroxide group survived”.
Regarding `CN[C@H](CC(C)C)C(=O)N[C@H]1C(=O)N[C@@H](CC(N)=O)C(=O)N[C@H]2C(=O)N[C@H]3C(=O)N[C@H](C(=O)N[C@H](C(=O)O)c4cc(O)cc(O)c4-c4cc3ccc4O)[C@H](O)c3ccc(c(Cl)c3)Oc3cc2cc(c3O[C@@H]2O[C@H](CO)[C@@H](O)[C@H](O)[C@H]2O[C@H]2C[C@](C)(N)[C@H](O)[C@H](C)O2)Oc2ccc(cc2Cl)[C@H]1O` [vancomycin], the MIC was 2 µg/mL (≈ 1.38 µM) in assay [1] (ATCC630, 48 h); more than 256 µg/mL in [5] (ATCC11842, 48 h); 8 µg/mL (≈ 5.52 µM) in the assay on ATCC BAA-835 (48 h); 4 µg/mL (≈ 2.76 µM) in [6] (ATCC4356, 48 h); 4 µg/mL (≈ 2.76 µM) in [7] (ATCC19435, 48 h); 4 µg/mL (≈ 2.76 µM) in assay [8] (ATCC19433, 48 h). In addition, the MIC is 256 µg/mL (≈ 177 µM) in assay [9] (ATCC7469, 48 h); 4 µg/mL (≈ 2.76 µM) in assay [10] (CGMCC1, 48 h); 1 µg/mL (≈ 0.69 µM) in assay [2] (ATCC700057, 48 h); 1 µg/mL (≈ 0.69 µM) in assay [3]. The “survival / mortality” value in [4] is given as “all hamsters in the vancomycin group died”.

A word on the MIC: it is the smallest concentration in the dilution series that meets the test's criterion for growth inhibition.
